According to patent publication US11311513B2, “Methods, agents, and compositions for the treatment of acute myeloid leukemia” (UNIVERSITY OF CINCINNATI, priority 2017, dated 2022):

Experiments:
[1] = tested on: KOCL-48 cells; assay: MTS cell viability, KOCL-48; format: cell-based; settings: 48 hrs, unit inferred
Procedure: (§1) In order to identify chemical compounds that may target TET1 signaling, the drug-sensitivity/gene expression database of a total of 20,602 chemical compounds in the NCI-60 collection of cancer cell samples was searched.
(§2) All cell lines were authenticated through STR profiling yearly.
(§3) These experiments were conducted as described previously (Jiang, X., et al., Blockade of miR-150 Maturation by MLL-Fusion/MYC/LIN-28 Is Required for MLL-Associated Leukemia, Cancer Cell 22:524-35 (2012); Li, Z., et al., miR-196b directly targets both HOXA9/MEIS1 oncogenes and FAS tumour suppressor in MLL-rearranged leukaemia, Nat Commun 2:688 (2012)) with ApoLive-Glo Multiplex Assay Kit, or CellTiter 96 AQueous Non-Radioactive Cell Proliferation Assay Kit (Promega, Madison, Wis.).

[2] = tested on: normal hematopoietic stem/progenitor cells (c-Kit+ BM cells); assay: MTS and apoptosis assays in normal HSPCs; format: cell-based, mice; settings: 50 nM; 3 days
Procedure: FIG. 14. […] BM cells of leukemic mice with MLL-AF9 fusion (MA9-AML) or FLT3-ITD/NPM1^mut, and c-Kit^+ HSPCs from a pool of 6 healthy donor mice were cultured in liquid medium. […] MTS (a), apoptosis assays (b) and qPCR (c) were conducted 3 days after cell seeding or drug treatments. Error bar indicates SD of triplicate experiments.
as §3

[3] = tested on: THP-1 and KASUMI-1 cells; assay: Combination with daunorubicin in AML cells; format: cell-based; settings: 25 nM compound and 100 nM DNR; 48 hours
[4] = Acute and long-term toxicity profiling in healthy mice; format: in vivo, C57BL/6 mice; settings: for acute (24 hrs) or long-term (200 days) toxicity: 2.5 mg/kg i.p. once per day 10 days, body, spleen, liver weights, WBC, PB and BM lineages; for WBC: 2.5 mg/kg i.p. 10 days, normal range 1.8-10.7; for BA / EO: normal range 0.0-0.2; for MO: normal range 0.0-0.4; for NE: normal range 0.1-2.4; for LY: normal range 0.9-9.3; for RBC: normal range 6.36-9.42; for PLT: normal range 592-2972
Procedure: FIG. 15. […] 24 hrs after the last administration, body weights (a), weights of spleens (b), livers (c), total PB WBC counts (d), BM Mac1^+Gr1^+ (e), Mac1^+Gr1^− (f), Mac1^−Gr1^+ (g), and c-Kit^+ (h) populations were analyzed.
FIG. 16. […] 200 days after the last administration, body weights (a), weights of spleens (b), livers (c), total PB WBC counts (d), BM Mac1^+Gr1^+ (e), Mac1^+Gr1^− (f), Mac1^−Gr1^+ (g), and c-Kit^+ (h) populations were analyzed.

[5] = tested on: STAT3 and STAT5 phosphorylation; assay: Western blotting of STAT phosphorylation in MONOMAC-6 cells; format: cell-based; settings: 250 nM, 0 min to 24 hrs
Text: FIG. 10. […] Relative cell viabilities are shown. […] Levels of TET1 transcripts are shown. […] (e-h) MONOMAC-6, THP-1 and NB4 cells were transfected with control siRNA (siNC), siSTAT3, or siSTAT5. Expression levels of STAT5 (e), STAT3 (f), TET2 (g) and TET3 (h) were detected by qPCR 48 hrs post-transfection. (i) THP-1 cells were transfected with control siRNA (siNC), siTET1, siJAK1 or siSTAT5. Gene expression levels were detected by qPCR 48 hrs post-transfection. […] (j) ChIP-qPCR assay was carried out 48 hrs after drug treatment. Enrichment of TET1 or IgG at the JAK1 promoter region and other regions are shown. […] Protein levels were detected thereafter. […] Expression levels of TET1, HIF2 a, IL2RA and FRA2 (1) were detected through qPCR. The enrichment of STAT5 on the promoters of TET1 (Site 2; CpG), HIF2a, IL2RA and FRA2 (m) was determined through ChIP-qPCR assays. *, P<0.05; **, P<0.01, two-tailed t-test. Error bar indicates SD of triplicate experiments.
Cells were washed twice with ice-cold phosphate-buffered saline (PBS) and ruptured with RIPA buffer (Pierce, Rockford, Ill.) containing 5 mM EDTA, PMSF, cocktail inhibitor, and phosphatase inhibitor cocktail. Cell extracts were microcentrifuged for 20 min at 10,000 g and supernatants were collected. Cell lysates were resolved by SDS-PAGE and transferred onto PVDF membranes. […]

[6] = tested on: THP-1 cells; assay: MTS cell viability, THP-1; format: cell-based; settings: Homo sapiens, 48 hrs, unit inferred
Procedure: as §1, §2, §3

[7] = tested on: MLL-AF9-induced AML; assay: MLL-AF9 AML secondary BMT mouse model; format: in vivo, mice; settings: for mice cured / median survival: 2.5 mg/kg i.p. once per day for 10 days; for median survival: control 49 days
Procedure: FIG. 2. […] The secondary BMT recipient mice were transplanted with leukemic BM blast cells collected from primary MLL-AF9 AML mice. […] Kaplan-Meier curves are shown. The P values were determined by log-rank test. (b) Wright-Giemsa staining of mouse peripheral blood (PB) and BM, or hematoxylin and eosin (H&E) staining of mouse spleen and liver of the treated or control leukemic mice. (c,d) Tet1/2/3 gene expression levels (c) or Tet1 protein level (d) in BM blast cells of the treated or control leukemic mice. *, P<0.05, two-tailed t-test. Error bar indicates SD of triplicate experiments. […] The secondary BMT recipient mice were transplanted with leukemic BM blast cells collected from the primary AE9a-AML mice. […] Kaplan-Meier curves are shown. The P values were determined by log-rank test.
Secondary mouse BMT was carried out as described previously. […] For the “5+3” treatment, AraC (Cytarabine, Bedford Laboratories) and DNR (Daunorubicin, Sigma-Aldrich) were reconstituted with PBS, filtered, and stored in aliquots at −20° C. The “5+3” therapy regimen consists of five consecutive daily doses of 50 mg/kg AraC along with 3 mg/kg DNR daily during the first three days of treatment. Drugs were delivered by tail vein and intraperitoneal injection. Weights were taken daily during treatment and doses were recalculated to ensure the mice received a consistent dose of 50 mg/kg AraC and 3 mg/kg DNR every treatment.

[8] = acute, 24 hrs post last administration
[9] = long-term, 200 days post last administration

With COc1cc(C(c2cc3c(cc2O)OCO3)N2CCCC2)cc(OC)c1OC (stereo not drawn) [NSC-370284, 6-(1-Pyrrolidinyl(3,4,5-trimethoxyphenyl)methyl)-1,3-benzodioxol-5-ol] the IC50 [1] was 38.2 nM, the “toxicity on normal HSPCs (viability, apoptosis)” value [2] was “no obvious toxicity” and the “combined effect with DNR on inhibiting viability” value [3] was “works synergistically”. For the same compound, the “acute (24 hrs) or long-term (200 days) toxicity” value [4] was “no evidence of either acute or long-term toxicity”, the WBC [4, 8] was 8.35 ± 2.34 K/μl and the BA [4, 8] was 0.05 ± 0.05 K/μl. The MO [4, 8] was 0.22 ± 0.14 K/μl, the NE [4, 8] was 1.67 ± 0.21 K/μl and the LY [4, 8] was 6.74 ± 2.55 K/μl. The RBC [4, 8] was 8.55 ± 3.34 M/μl, the PLT [4, 8] was 460.21 ± 42.42 K/μl and the WBC [4, 9] was 10.34 ± 2.19 K/μl. It also gave a BA [4, 9] of 0.03 ± 0.02 K/μl, an EO [4, 9] of 0.11 ± 0.01 K/μl and an MO [4, 9] of 0.31 ± 0.03 K/μl. The NE [4, 9] was 2.26 ± 0.54 K/μl, the LY [4, 9] was 7.68 ± 1.55 K/μl and the RBC [4, 9] was 7.38 ± 1.7 M/μl. The PLT [4, 9] was 929.62 ± 154.61 K/μl, the “levels of STAT3 and STAT5 phosphorylation” value [5] was “no significant alterations” and the IC50 [6] was 0.356 nM. For the same compound, the mice cured [7] was 57% and the median survival [7] was > 200 days.
In the case of CC(C)(C)c1cc(C(c2cc3c(cc2O)OCO3)N2CCOCC2)cc(C(C)(C)C)c1O (stereo not drawn) [UC-514321, 6-{[4-Hydroxy-3,5-bis(2-methyl-2-propanyl)phenyl](4-morpholinyl)methyl}-1,3-benzodioxol-5-ol], the “toxicity on normal HSPCs (viability, apoptosis)” value [2] is reported as “no obvious toxicity”, the “combined effect with DNR on inhibiting viability” value [3] is reported as “works synergistically” and the “acute (24 hrs) or long-term (200 days) toxicity” value [4] is reported as “no evidence of either acute or long-term toxicity”. For the same compound, the WBC [4, 8] was 8.64 ± 3.68 K/μl, the BA [4, 8] was 0.07 ± 0.05 K/μl and the EO [4, 8] was 0.14 ± 0.12 K/μl. For the same compound, the MO [4, 8] was 0.27 ± 0.1 K/μl, the NE [4, 8] was 1.94 ± 0.56 K/μl and the LY [4, 8] was 6.54 ± 2.7 K/μl. It also gave an RBC [4, 8] of 9.54 ± 0.74 M/μl, a PLT [4, 8] of 559.43 ± 116.9 K/μl and a WBC [4, 9] of 11.89 ± 1.64 K/μl. It also gave a BA [4, 9] of 0.07 ± 0.04 K/μl, an EO [4, 9] of 0.1 ± 0.01 K/μl and an MO [4, 9] of 0.25 ± 0.05 K/μl. For the same compound, the NE [4, 9] was 2.11 ± 0.44 K/μl, the LY [4, 9] was 8.55 ± 1.18 K/μl and the RBC [4, 9] was 7.07 ± 0.42 M/μl. For the same compound, the PLT [4, 9] was 681.56 ± 402.64 K/μl, the mice cured [7] was 66.7% and the median survival [7] was > 200 days. For the same compound, the “prolongation of median survival” value ([7]; versus control, 2.5 mg/kg i.p. 10 days) was “over 3 folds”.
